Where two headings read alike, the source gives them in different places.
What was measured:
[1] = target: T1, Human EGF receptor tyrosine kinase (Homo sapiens, UniProt P00533); assay: EGF receptor tyrosine kinase inhibition (phosphorylation of PLC-gamma 1 derived peptide); format: biochemical
T1 construct: isolated from A431 human epidermoid carcinoma cells which overexpress EGF receptor; endogenous in cells; host or cells: A431 human epidermoid carcinoma cells; purified from the lysate on wheat germ agglutinin sepharose
Procedure: Purification of Epidermal Growth Factor Receptor Tyrosine Kinase—Human EGF receptor tyrosine kinase was isolated from A431 human epidermoid carcinoma cells which overexpress EGF receptor by the following methods. Cells were grown in roller bottles in 50% Delbuco's Modified Eagle and 50% HAM F-12 nutrient media (Gibco) containing 10% fetal calf serum. Approximately 10^9 cells were lysed in two volumes of buffer containing 20 mM 2-(4N-[2-hydroxyethyl]piperazin-1-yl)ethanesulfonic acid (hepes), pH 7.4, 5 mM ethylene glycol bis(2-aminoethyl ether) N,N,N′,N′-tetraacetic acid, 1% Triton X-100, 10% glycerol, 0.1 mM sodium orthovanadate, 5 mM sodium fluoride, 4 mM pyrophosphate, 4 mM benzamide, 1 mM dithiothreitol, 80 μg/mL aprotinin, 40 μg/mL leupeptin and 1 mM phenylmethylsulfonyl fluoride. After centrifugation at 25,000×g for 10 minutes, the supernatant was equilibrated for 2 h at 4° C. with 10 mL of wheat germ agglutinin sepharose that was previously equilibrated with 50 mM Hepes, […], 0.1% Triton X-100 and 150 mM NaCl, pH 7.5, (equilibration buffer). Contaminating proteins were washed from the resin with 1 M NaCl in equilibration buffer, and the enzyme was eluted with 0.5 M N-acetyl-1-D-glucosamine in equilibration buffer, followed by 1 mM urea. The enzyme was eluted with 0.1 mg/ml EGF.
The reaction was terminated by the addition of 2 mL of […] phosphoric acid and passed through a 2.5 cm phosphocellulose filter disc to bind the peptide. The filter was washed five times with 75 mM phosphoric acid and placed in a vial along with 5 mL of scintillation fluid (Ready gel Beckman).

erbB-2, 3, 4 = assay: Inhibition of conditioned media-induced autophosphorylation in SK-BR-3 breast tumor cells; format: cell-based, human; settings: SK-BR-3 cells, read-out: SKBR-3 IC50
Procedure: (§1) Cells were grown to 100% confluency in 100 mm Petrie dishes (Corning). After the cells were treated for 5 minutes with either EGF (epidermal growth factor), PDGF, or bFGF (basic fibroblast growth factor) (20 ng/ml) or 1 ml of conditioned media from MDA-MB-231 cells, the media was removed and the monolayer scraped into 1 ml of ice cold lysis buffer (50 mM Hepes, pH 7.5, 150 mM NaCl, 10% glycerol, 1% triton X-100, 1 mM EDTA, 1 mM EGTA, 10 mM sodium pyrophosphate, 30 mM p-nitrophenyl phosphate, 1 mM orthovanadate, 50 mM sodium fluoride, 1 mM phenylmethylsulfonylfluoride, 10 μg/ml of aprotinin, and 10 μg/ml of leupeptin). The lysate was transferred to a microfuge tube (small centrifuge that holds 1-2 ml plastic centrifuge tubes), allowed to sit on ice 15 minutes and centrifuged 5 minutes at 10,000×g. The supernatant was transferred to a clean microfuge tube and 5 μg of antibody was added to designated samples. The tubes were rotated for 2 hours at […] after which 25 μl of protein A sepharose was added and then rotation continued for at least 2 more hours. The protein A separose was washed 5 times with 50 mM Hepes, pH 7.5, 150 mM NaCl, 10% glycerol and 0.02% sodium azide. […] The extract were transferred to a microfuge tube and heated to 100° C. for 5 minutes. […] Proteins in the gel were electrophoretically transferred to nitrocellulose and the membrane was washed once in 10 mM Tris buffer, pH 7.2, 150 mM NaCl, 0.01% Azide (TNA) and blocked overnight in TNA containing 5% bovine serum albumin and 1% ovalbumin (blocking buffer). The membrane was blotted for 2 hours with the primary antibody (1 μg/ml in blocking buffer) and then washed 2 times sequentially in TNA, TNA containing 0.05% Tween-20 and 0.05% Nonidet P-40 (commercially available detergent) and TNA.

[2] = test system: NIH 3T3 mouse fibroblast line, transfected with the human EGFR gene; assay: Morphology of EGF-treated NIH 3T3 fibroblasts transfected with the human EGFR gene; format: cell-based; settings: 100 ng/mL of EGF and 5 μm of compound (FIG. 17)
Procedure: FIG. 15 is a photograph of an NIH 3T3 mouse fibroblast line, transfected with the human EGFR gene showing a normal flattened morphology;
FIG. 16 is a photograph of the same cell line treated with 100 ng/mL of EGF showing a typical spindly transformed morphology; and […]

EGF receptor = target: T2, EGF receptor (Homo sapiens, UniProt P00533); assay: Inhibition of EGF-induced autophosphorylation in A431 epidermoid carcinoma cells; format: cell-based
T2 construct: EGF receptor autophosphorylation in A431 human epidermoid carcinoma; endogenous in cells; host or cells: A431 human epidermoid carcinoma cells (ATCC)
Procedure: as §1

c-jun mRNA = assay: Growth factor dependent expression of c-jun mRNA in Swiss 3T3 (Northern blot); format: cell-based, mouse; settings: Swiss 3T3 cells, EGF-stimulated (FIG. 7)
Procedure: Total cellular RNA was isolated from untreated control or treated Swiss 3T3 cells using RNAzol-B (trademark of Tel Test Inc. for a kit used to isolate RNA from tissues) and adhered to the protocol described by the manufacturer. Forty to fifty μg of RNA was loaded onto a 1% agarose gel and electrophoresis carried out for 3-4 hours at 65 volts. The RNA in the gel was transferred by capillary action to a nylon membrane (Hybond-N, Amersham). The 40 mer c-jun probe was end labeled with [^32p]ATP using […] (Promega) and purified on a G25 sephadex column according to the procedure recommended by the supplier, Oncogene Science. Hybridization was performed overnight at 65° C. (c-jun is an immediate early transcription factor; it is one of the components of AP-1 while FOS is the second component of AP-1.
Gel of Example 40 (FIG. 7) detects mRNA-for c-jun by hybridization with a specific radiolabelled RNA probe for c-jun.

p39^c-jun = assay: Growth factor mediated expression of p39 c-jun in Swiss 3T3 (Western blot); format: cell-based, mouse
Procedure: Monoclonal antibodies raised to the PDGF ([…]) receptor or phosphotyrosine were from Upstate Biotechnology, Inc., Lake Placid, N.Y. Anti-pp39^jun (antibody to the transcription factor c-jun, which is a 39 kDalton phosphoprotein) and anti-EGF receptor antibodies were from Oncogene Science, Uniondale, N.Y.
Cells were grown to 100% confluency in 100 mm Petrie dishes (Corning). After the cells were treated for 5 minutes with either EGF (epidermal growth factor), PDGF, or bFGF (basic fibroblast growth factor) (20 ng/ml) or 1 ml of conditioned media from MDA-MB-231 cells, the media was removed and the monolayer scraped into 1 ml of ice cold lysis buffer (50 mM Hepes, pH 7.5, 150 mM NaCl, 10% glycerol, 1% triton X-100, 1 mM EDTA, 1 mM EGTA, 10 mM sodium pyrophosphate, 30 mM p-nitrophenyl phosphate, 1 mM orthovanadate, 50 mM sodium fluoride, 1 mM phenylmethylsulfonylfluoride, 10 μg/ml of aprotinin, and 10 μg/ml of leupeptin). The lysate was transferred to a microfuge tube (small centrifuge that holds 1-2 ml plastic centrifuge tubes), allowed to sit on ice 15 minutes and centrifuged 5 minutes at 10,000×g. The supernatant was transferred to a clean microfuge tube and 5 μg of antibody was added to designated samples. The tubes were rotated for 2 hours at […] after which 25 μl of protein A sepharose was added and then rotation continued for at least 2 more hours. The protein A separose was washed 5 times with 50 mM Hepes, pH 7.5, 150 mM NaCl, 10% glycerol and 0.02% sodium azide. The precipitates were resuspended with 30 μl of Laemlli buffer (Laemmli, […], pp. 680-685, 1970), heated to 100° C. for 5 minutes and centrifuged to obtain the supernatant. Whole cell extracts were made by scraping cells grown in the wells of 6 well plates into 0.2 ml of boiling Laemmli buffer. The extract were transferred to a microfuge tube and heated to 100° C. for 5 minutes. […]

[3] = Table 1, values in nM, read-out: EGF Receptor Tyrosine Kinase Inhibition IC50

T1 sequence (P00533 25-1210): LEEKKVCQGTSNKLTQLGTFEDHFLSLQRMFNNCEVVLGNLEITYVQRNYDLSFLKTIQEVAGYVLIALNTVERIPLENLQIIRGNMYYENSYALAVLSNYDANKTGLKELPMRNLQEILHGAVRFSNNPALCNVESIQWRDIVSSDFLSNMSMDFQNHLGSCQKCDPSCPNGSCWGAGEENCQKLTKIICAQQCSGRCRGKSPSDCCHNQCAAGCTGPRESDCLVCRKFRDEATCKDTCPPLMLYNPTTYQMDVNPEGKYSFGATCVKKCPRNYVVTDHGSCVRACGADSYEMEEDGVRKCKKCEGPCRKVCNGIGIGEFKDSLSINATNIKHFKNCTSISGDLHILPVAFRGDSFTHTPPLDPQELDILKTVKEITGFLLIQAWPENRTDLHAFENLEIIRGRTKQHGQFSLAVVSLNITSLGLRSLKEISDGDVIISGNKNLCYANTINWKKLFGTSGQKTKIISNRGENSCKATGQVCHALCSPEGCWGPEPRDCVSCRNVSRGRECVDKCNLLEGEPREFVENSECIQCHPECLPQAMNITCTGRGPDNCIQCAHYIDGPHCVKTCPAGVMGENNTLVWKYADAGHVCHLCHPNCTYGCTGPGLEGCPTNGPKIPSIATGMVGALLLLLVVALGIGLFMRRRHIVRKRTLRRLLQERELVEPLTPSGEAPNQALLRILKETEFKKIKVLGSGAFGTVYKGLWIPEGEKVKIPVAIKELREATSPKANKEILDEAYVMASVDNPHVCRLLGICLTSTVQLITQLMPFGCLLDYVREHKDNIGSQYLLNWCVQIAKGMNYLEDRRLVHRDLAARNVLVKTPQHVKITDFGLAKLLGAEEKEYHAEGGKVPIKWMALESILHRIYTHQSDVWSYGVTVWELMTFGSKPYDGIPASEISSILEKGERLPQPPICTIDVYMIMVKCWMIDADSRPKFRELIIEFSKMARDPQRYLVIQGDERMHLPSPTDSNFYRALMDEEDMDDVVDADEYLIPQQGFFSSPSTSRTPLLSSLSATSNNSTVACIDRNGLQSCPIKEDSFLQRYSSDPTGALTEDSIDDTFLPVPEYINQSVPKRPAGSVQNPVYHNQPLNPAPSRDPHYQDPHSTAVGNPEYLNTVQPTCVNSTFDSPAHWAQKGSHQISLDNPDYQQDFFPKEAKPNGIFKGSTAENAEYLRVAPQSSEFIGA
T2 sequence (P00533 25-1210): as above

Row | IC50 [1, 3] [nM] | IC50 ([1]; enzyme value repeated in the autophosphorylation table, read-out: EGFR IC50) [nM] | IC50 (erbB-2, 3, 4) [nM] | IC50 (EGF receptor) [nM] | SMILES | cell morphology [2] | c-jun mRNA production (c-jun mRNA) | c-jun expression (p39 c-jun protein) (p39^c-jun; Swiss 3T3, stimulated by EGF (FIG. 8)) | c-jun expression (p39 c-jun protein) (p39^c-jun; Swiss 3T3, stimulated by PDGF (FIG. 8)) | c-jun expression (p39 c-jun protein) (p39^c-jun; Swiss 3T3, stimulated by b-FGF (FIG. 8))
1 | 10 | 10 | ~800 | 110 | Nc1cc2ncnc(Nc3cccc(Br)c3)c2cn1 [Example 27, 7-Amino-4-(3-bromoanilino)pyrido[4,3-d]pyrimidine] | morphology reverted from the transformed type back to the normal type | – | – | – | –
2 | 578 | – | – | – | Nc1cc2ncnc(NCc3ccccc3)c2cn1 [Example 40, 7-Amino-4-benzylaminopyrido[4 3-d]pyrimidine] | – | blocks this production for EGF-stimulated cells | block c-jun expression | not when stimulated by PDGF or b-FGF | not when stimulated by PDGF or b-FGF
